Where a name gives a salt, the structure may show the parent alone.
Target: human recombinant H-PGDS (Homo sapiens, UniProt O60760)
Assay: Slightly modified h-PGDS TBA enzyme assay (Examples 529, 565, 566, 574-588 and 591)
Type: biochemical
Settings: slightly modified assay (Examples 529, 565, 566, 574-588 and 591); 1:40,000 human recombinant H-PGDS
Protocol: Prostaglandin D Synthase (PGDS) converts the substrate prostaglandin H2 (PGH2) to prostaglandin D2. The depletion of PGH2 was measured via an Fe(II) reduction of the remaining PGH2 to malondialdehyde (MDA) and 12-HHT. The enzyme assay is based on the quantitative formation of a fluorescent complex from the non-fluorescent compounds MDA and 2-thiobarbituric acid (TBA), substantially as described in U.S. patent application publication US-2004/152148 by Lombardt.
Examples 529, 565, 566, 574-588 and 591 were tested in a slightly modified assay: The enzyme assay (30 μls during biological process) contained 100 mM Trizma pH 8.0, 100 μM MgCl2, 0.1 mg/ml IgG Rabbit serum, 5.0 μM PGH2 (Cayman; ethanol solution, #17020), 2.5 mM L-Glutathione (Sigma; reduced form #G4251), 1:40,000 human recombinant H-PGDS (from 1 mg/ml), 0.5% DMSO and inhibitor (varying concentration). 3 μls of diluted inhibitor (dissolved in DMSO) was plated into a 384-well assay plate followed by a 24 μl addition of an enzyme solution containing h-PGDS, Trizma, MgCl2, IgG and L-Glutathione. After pre-incubation of inhibitor and enzyme solution for 10 minutes at room temperature, the reaction was initiated with a 3 μl addition of substrate solution in 10 mM HCl. The reaction was terminated after 40 second by the addition of 3 μl stop buffer containing FeCl2 and citric acid. After addition of 45 μls of TBA plates were heated for one hour in a 70° C. oven. Plates were cooled at room temperature overnight and read on a plate reader the next day with excitation @ 530 nm and emission @ 560 nm. IC50's of inhibitors were calculated with a 4-parameter fit using 11 inhibitor concentrations in duplicate with ½ log serial dilutions. Controls on each plate included no inhibitor (zero % effect) and an inhibitor 500-fold in excess of its' IC50 (100% effect). The highest inhibitor concentration tested was typically 10 μM.

human recombinant H-PGDS, sequence (O60760 whole entry): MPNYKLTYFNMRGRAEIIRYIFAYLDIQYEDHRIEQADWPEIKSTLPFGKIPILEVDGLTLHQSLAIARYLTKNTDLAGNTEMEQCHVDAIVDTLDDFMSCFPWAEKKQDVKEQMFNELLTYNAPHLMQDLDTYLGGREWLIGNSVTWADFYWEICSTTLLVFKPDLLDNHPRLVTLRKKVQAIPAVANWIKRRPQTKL

SMILES	IC50 [nM]
O=C(CCNC(=O)c1ccc(-c2cccc(F)c2)nc1)N[C@H]1CC[C@H](O)CC1 [Example 582, 6-(3-Fuorophenyl)-N-{3-[(trans-4-hydroxycyclohexyl)amino]-3-oxopropyl}nicotinamide]	34.2
CNCCNC(=O)c1ccc(-c2cccc(F)c2)nc1 [Example 578, 6-(3-Fluorophenyl)-N-(2-(methylamino)ethyl)nicotinamide hydrochloride]	758
CCOCCNC(=O)c1ccc(-c2cc(F)ccc2O)nc1 [Example 566, N-(2-Ethoxyethyl)-6-(5-fluoro-2-hydroxyphenyl)nicotinamide]	349
CC(=O)N1CCC(CNC(=O)c2ccc(-c3cc(F)ccc3O)nc2)CC1 [Example 565, N-[(1-Acetylpiperidin-4-yl)methyl]-6-(5-fluoro-2-hydroxyphenyl)nicotinamide]	114
O=C(NCCO)c1ccc(-c2cccc(F)c2)nc1 [Example 577, 6-(3-Fluorophenyl)-N-(2-hydroxyethyl)nicotinamide]	275
O=C(N[C@H]1C[C@H]2CC[C@@H](C1)N2)c1ccc(-c2cccc(F)c2)nc1 [Example 584, N-[(3-endo)-8-azabicyclo[3.2.1]oct-3-yl]-6-(3-fluorophenyl)nicotinamide]	196
O=C(N[C@H]1[C@@H]2CN(c3ncccn3)C[C@@H]21)c1ccc(-c2cccc(F)c2)nc1 [Example 529, 6-(3-Fluorophenyl)-N-[(1R,5S,6s)-3-pyrimidin-2-yl-3-azabicyclo[3.1.0]hex-6-yl]nicotinamide]	11.3
CC(C)OCCNCCNC(=O)c1ccc(-c2cccc(F)c2)nc1 [Example 583, 6-(3-Fluorophenyl)-N-(2-(2-isopropoxyethylamino)ethyl)nicotinamide]	277
CC(C)S(=O)(=O)N1[C@@H]2CC[C@H]1C[C@H](NC(=O)c1ccc(-c3cccc(F)c3)nc1)C2 [Example 591, 6-(3-Fluorophenyl)-N-[(3-exo)-8-(isopropylsulfonyl)-8-azabicyclo[3.2.1]oct-3-yl]nicotinamide]	3.76
CCCN1[C@@H]2CC[C@H]1C[C@@H](NC(=O)c1ccc(-c3cccc(F)c3)nc1)C2 [Example 585, 6-(3-Fluorophenyl)-N-[(3-endo)-8-propyl-8-azabicyclo[3.2.1]oct-3-yl]nicotinamide]	176
O=C(NCCN1CCCC1)c1ccc(-c2cccc(F)c2)nc1 [Example 574, 6-(3-Fluorophenyl)-N-(2-pyrrolidin-1-ylethyl)nicotinamide]	1200
O=C(NCCN1CCC(O)CC1)c1ccc(-c2cccc(F)c2)nc1 [Example 575, 6-(3-Fluorophenyl)-N-[2-(4-hydroxypiperidin-1-yl)ethyl]nicotinamide]	162
O=C(NCC1CC1)c1ccc(-c2cccc(F)c2)nc1 [Example 579, N-(Cyclopropylmethyl)-6-(3-fluorophenyl)nicotinamide]	128
CC(C)(C)OC(=O)N1[C@@H]2CC[C@H]1C[C@H](NC(=O)c1ccc(-c3cccc(F)c3)nc1)C2 [Example 588, tert-Butyl (3-exo)-3-({[6-(3-fluorophenyl)pyridin-3-yl]carbonyl}amino)-8-azabicyclo[3.2.1]octane-8-carboxylate]	15.4
CC(C)(C)OC(=O)N1[C@@H]2CC[C@H]1C[C@@H](NC(=O)c1ccc(-c3cccc(F)c3)nc1)C2 [Example 586, tert-Butyl (3-endo)-3-({[6-(3-fluorophenyl)pyridin-3-yl]carbonyl}amino)-8-azabicyclo[3.2.1]octane-8-carboxylate]	8.78
CCCNC(=O)c1ccc(-c2cccc(F)c2)nc1 [Example 576, 6-(3-Fluorophenyl)-N-propylnicotinamide]	93.4
O=C(O)CCNC(=O)c1ccc(-c2cccc(F)c2)nc1 [Example 581, N-{[6-(3-Fluorophenyl)pyridin-3-yl]carbonyl}-beta-alanine]	197
O=C(N[C@@H]1C[C@H]2CC[C@@H](C1)N2)c1ccc(-c2cccc(F)c2)nc1 [Example 587, N-[(3-exo)-8-azabicyclo[3.2.1]oct-3-yl]-6-(3-fluorophenyl)nicotinamide]	39.2
CCNC(=O)c1ccc(-c2cccc(F)c2)nc1 [Example 580, N-Ethyl-6-(3-fluorophenyl)nicotinamide]	222

Source: US20110306597A1, “Nicotinamide Derivatives” (priority 2008, published 2011)
